Source: patent US5371102A, “Compositions and methods of inhibiting thyroid activity” (priority 1993, dated 1994)
Entries after “also recorded” stand apart in the source; their conditions may differ. Like-named read-outs stand apart in the source and are kept apart here.

How the values were obtained:
[1] = molecular target: T1, TPX (Sus scrofa, UniProt P09933); experiment: TPX inactivation; format: biochemical, hog; conditions: presence of hydrogen peroxide
T1 sequence (P09933 15-926): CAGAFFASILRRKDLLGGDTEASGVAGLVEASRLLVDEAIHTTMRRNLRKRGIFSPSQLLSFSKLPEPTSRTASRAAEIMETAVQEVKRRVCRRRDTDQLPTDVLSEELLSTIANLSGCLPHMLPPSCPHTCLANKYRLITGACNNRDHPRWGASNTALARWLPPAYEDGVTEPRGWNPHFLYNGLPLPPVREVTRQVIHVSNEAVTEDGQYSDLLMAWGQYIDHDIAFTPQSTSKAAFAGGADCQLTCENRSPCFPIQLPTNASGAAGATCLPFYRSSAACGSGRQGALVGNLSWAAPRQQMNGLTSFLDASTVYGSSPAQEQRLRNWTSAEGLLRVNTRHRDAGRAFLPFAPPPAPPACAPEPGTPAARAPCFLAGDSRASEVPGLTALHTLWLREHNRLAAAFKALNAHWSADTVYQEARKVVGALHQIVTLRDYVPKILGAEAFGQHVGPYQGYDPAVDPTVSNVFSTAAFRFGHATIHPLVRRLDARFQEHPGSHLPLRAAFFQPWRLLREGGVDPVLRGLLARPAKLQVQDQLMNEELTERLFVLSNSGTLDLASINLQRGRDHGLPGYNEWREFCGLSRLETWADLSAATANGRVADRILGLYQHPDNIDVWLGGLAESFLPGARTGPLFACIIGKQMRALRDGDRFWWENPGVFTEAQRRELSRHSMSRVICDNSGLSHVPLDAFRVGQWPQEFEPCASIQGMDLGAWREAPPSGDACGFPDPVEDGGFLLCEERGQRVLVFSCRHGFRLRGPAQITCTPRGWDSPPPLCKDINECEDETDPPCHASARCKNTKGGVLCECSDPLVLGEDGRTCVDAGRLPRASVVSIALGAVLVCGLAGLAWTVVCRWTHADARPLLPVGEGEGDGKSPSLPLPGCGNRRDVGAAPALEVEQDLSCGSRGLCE
Excerpt: (§1) Materials used in the examples below were obtained from the following sources. Bovine LPX, bovine liver catalase, glucose oxidase, 30% hydrogen peroxide, glucose, guaiacol, ABTS and deuterium oxide were purchased from Sigma Chemical Company. Selenium dioxide, MBI ^13 CH3 I and PBA were purchased from Aldrich Chemical Company and PBA was purified as previously described by Fieset et al., Reagents for Organic Synthesis, Vol. I, pp.135-139, John Wiley and Sons, N.Y. (1967). LPX purity was checked by PAGE, as described by Doerge, D.R., et al. in, Biochem. Pharmacol., Vol.36, pp.972-974 (1986). TPX was purified from hog thyroids obtained from a local slaughterhouse by published procedures. Doerge & Takazowa, Chemical Research in Toxicology, Vol. 3, pp. 98-101 (1990). TPX purity was determined by LC and its concentration determined spectophotometrically. Hydroperoxide concentrations were determined by iodometric titration, as described by Kolthoff, et al., in "Quantitative Chemical Analysis", Macmillan, London, pp.842-860 (1969). MMBI, and BI were synthesized by published procedures as described by Doerge, D.R., Biochem, Vol. 27, pp. 3697-3700 (1988) and were recrystallized from aqueous ethanol. MeBI was purified by distillation and DMeBI^+ was synthesized and purified by recrystallization from ethyl acetate/methanol. 1-^13 C-MMBI was synthesized from ^13 CH3 I according to the procedure disclosed by Doerge, D.R., in, J. Lab. Comp. and Radiopharm., Vol.25, pp.985-990 (1988). PPHP and PPA were prepared, purified and analyzed as previously described by Doerge, Biochem, Vol.27, p.11 (1988). The methyl ester of 1-methyl-benzimidazole-2-sulfinic acid was prepared by addition of hydrogen peroxide (5 equivalents of a 10 M solution) to MMBI (0.1 M) in methanol. The products, MeBI and the ester, were obtained following preparative TLC on silica (Uniplate, Analtech Co., Newark, DL) using 5% methanol/chloroform as eluant.
DMMBI was synthesized according to a published method. Duffin et al., J. Chem. Soc., Part II, pp.364-365 (1956). Samples including TPX, H2 O2, and I^- were incubated with and without DMMBI. Triiodide formation was observed spectrophotometrically with respect to time.

[2] = molecular target: T2, LPX (Bos taurus, UniProt P80025); experiment: LPX suicide inactivation kinetics; format: biochemical, bovine
T2 construct: purchased Sigma Chemical Company
Excerpt: as §1
Inhibition of LPX activity by thiones was determined from the kinetics of iodide ion, guaiacol or ABTS oxidation assays conducted at 25° C. Kinetic parameters of suicide inactivation were determined as previously described. Doerge, Biochem. Vol.27, pp.3697-3700 (1988).

[3] = molecular target: T2, LPX; experiment: LPX-mediated covalent binding of labelled thiocarbamides to LPX; set-up: species or system bovine; conditions: +H2O2 vs. +H2O2 +KI; 14C- and 35S-labelled
Excerpt: as §1
LPX-mediated covalent binding of ^14 C- and ^35 S-labelled thiocarbamides to LPX under iodide-dependent and -independent conditions was measured.

[4] = molecular target: T1, TPX; experiment: covalent binding to TPX in the presence of H2O2; set-up: species or system hog
Excerpt: as §1, with “MeBI was purified by distillation and DMeBI^+ was synthesized and purified by recrystallization from ethyl acetate/methanol. 1-^13 C-MMBI was synthesized from ^13 CH3 I according to the procedure disclosed by Doerge, D.R., in, J. Lab. Comp. and Radiopharm., Vol.25, pp.985-990 (1988).” left out, “The methyl ester of 1-methyl-benzimidazole-2-sulfinic acid was prepared by addition of hydrogen peroxide (5 equivalents of a 10 M solution) to MMBI (0.1 M) in methanol. The products, MeBI and the ester, were obtained following preparative TLC on silica (Uniplate, Analtech Co., Newark, DL) using 5% methanol/chloroform as eluant.” left out

[5] = test system: LPX and TPX; experiment: suicide inhibition of peroxidases (summary statements); format: biochemical; conditions: for suicide inhibition: summary of own examples
[6] = chemical oxidation stoichiometry of thiones; format: physicochemical; conditions: for moles of oxidant required for total reaction: PBA, FIG. 4
Method: Oxidation stoichiometries were determined for the thione compounds MBI, MMBI and DMMBI by incubating the thiones with varying amounts of PBA (0-250μM). The rapid reaction (t1/2 <10 s at 25° C.) of benzimidazole-2-thiones with PBA in methanol provided a convenient method for determining oxidation stoichiometry.
(§2) Oxidation stoichiometries were determined spectrophoto, metrically, using a Hewlett Packard 8452A diode array spectrophotometer, by measuring thione concentration at 305 nm as a function of PBA concentration. Hydroperoxide content was determined iodometrically. Stoichiometries of substrate consumption/product formation were also determined by addition of limiting amounts of PBA to 100 μM MBI or MMBI in 50% methanol/pH 7 phosphate. The disappearance of thione and the production of BI, MeBI and bisulfite ion was determined after one hour at 25° C. The production of bisulfite ion was measured […]. The production of sulfate ion was determined by ion chromatography using a AS4A column (Dionex Co., Sunnyvale, CA) with a Dionex Gradient Pump Module and a Dionex CDM II conductivity detector equipped with an AMMS suppressor using 3 mM carbonate/bicarbonate buffer pH 10 as eluant at 2.0 ml/min. Reaction products were also monitored by ^1 H NMR performed at 300 MHz using a Nicolet NT300 or General Electric QE300 spectrometer DSS as a reference.

[7] = thione reaction with PBA in aqueous buffered methanol, product ratios; format: physicochemical; conditions: thione 100 μM, PBA 0-200 μM
Method: as §2
The reaction of MBI and MMBI with PBA was also examined in aqueous buffered methanol. Thione (100 μM) was incubated with varying concentrations of PBA (0-200 μM). Reactant and product quantities were determined by LC as described in example 1. The ratios of product formation to thione consumption were calculated, and are reported below in Table 1. The values are averages of two slope determinations, i.e., moles of product formed or reactant consumed vs. moles of oxidant added, each determined from at least five data points.

[8] = kinetics of thione oxygenation by hydrogen peroxide/TFA; format: physicochemical; conditions: thione 25 μM, H2O2 34 mM, TFA 163 mM in methanol, 25° C.; relative to DMMBI
Method: The kinetics of thione oxygenation were determined for MBI, MMBI and DMMBI. Oxygenation by hydrogen peroxide/TFA was measured spectrophotometrically (305 nm) at 25° C. by addition of thione (final concentration 25 μM) to hydrogen peroxide (34 mM) and TFA (163 mM) in methanol.

[9] = test system: LPX and TPX; conditions: currently used drugs, background; cited from earlier work
[10] = cited from earlier work
[11] = test system: TPX; conditions: cited from earlier work
[12] = test system: LPX; conditions: cited from earlier work
[13] = molecular target: T1, TPX; experiment: TPX-catalyzed iodide oxidation (triiodide formation), spectrophotometric; format: biochemical, hog; conditions: TPX, H2O2 and I-
Excerpt: as §1, with “eluant. […]” for “eluant.”
1,3-diacetyl MBI (AczMBI) was synthesized according to the method published by Doerge et al., Syn. […] Varying quantities of Ac2 MBI were incubated with TPX, H2 O2, and I^-. […]

In the case of `Cn1c(S)nc2ccccc21` [MMBI, 1-methylbenzimidazole-2-thione], the TPX inactivation [1] is reported as “rapid, irreversible loss of LPX and TPX activity; also recorded: cause rapid, irreversible enzyme inactivation”, the “partition ratio (LPX inactivation)” value ([2]; 25° C.) is reported as about 35 and the KI (inactivation) ([2]; 25° C.; read-out: Ki (LPX inactivation)) is reported as 274 nM. For the same compound, the “LPX inactivation / loss of LPX activity” value ([2]; presence of hydrogen peroxide) was “rapid, irreversible loss of LPX and TPX activity; also recorded: cause rapid, irreversible enzyme inactivation”, the “covalent binding to LPX” value [3] was “become covalently bound to LPX” and the “covalent binding to TPX” value [4] was “bind covalently to LPX and TPX”. For the same compound, the suicide inhibition [5] was “suicide inhibitors”, the “moles of oxidant required for total reaction” value [6] was “two” and the “equivalents of hydroperoxide required per mole of thione” value ([6]; hydroperoxides) was 2 equivalents. For the same compound, the PBA/thione [7] was 1.98, the benzimidazole/thione [7] was 0.87 and the bisulfite/thione [7] was 0.72. The “relative rate of oxygenation” value [8] was 1.3.
In the case of `Cn1cc[nH]c1=S` [MMI, 1-methylimidazole-2-thione], the suicide inhibition [9] is given as “suicide inhibitors”.
In the case of `CCOC(=O)n1ccn(C)c1=S` [carbimazole, 1-carboxyethyl-3-methylimidazole-2-thione], the “in vivo stability / conversion” value [10] is given as “labile in vivo and is rapidly converted to methimazole”.
In the case of `Sc1nc2ccccc2[nH]1` [MBI, benzimidazole-2-thione], the TPX inactivation [1] is reported as “rapid, irreversible loss of LPX and TPX activity; also recorded: cause rapid, irreversible enzyme inactivation”, the “partition ratio (LPX inactivation)” value ([2]; 25° C.) is reported as “approximately 3” and the “LPX inactivation / loss of LPX activity” value ([2]; presence of hydrogen peroxide) is reported as “rapid, irreversible loss of LPX and TPX activity; also recorded: cause rapid, irreversible enzyme inactivation”. For the same compound, the KI (inactivation) ([2]; read-out: Ki (LPX inactivation); 25° C.) was 0.1 nM, the “covalent binding to LPX” value [3] was “become covalently bound to LPX” and the “covalent binding to TPX” value [4] was “bind covalently to LPX and TPX”. For the same compound, the suicide inhibition [5] was “suicide inhibitors”, the “moles of oxidant required for total reaction” value [6] was “two” and the PBA/thione [7] was 1.89. The benzimidazole/thione [7] was 0.89, the bisulfite/thione [7] was 0.72 and the “relative rate of oxygenation” value [8] was 2.3.
For `S=C1NCCN1` [ETU, imidazolidine-2-thione], the “inhibition of TPX-catalyzed iodination” value [11] is given as “inhibits TPX- and LPX-catalyzed iodination reactions” and the “inhibition of LPX-catalyzed iodination” value [12] is given as “inhibits TPX- and LPX-catalyzed iodination reactions”.
In the case of `CC(=O)n1c(=S)n(C(C)=O)c2ccccc21` [Ac2 MBI, 1,3-diacetylbenzimidazole-2-thione], the “effect on triiodide formation” value [13] is reported as “exhibits similar inhibition of triiodide formation as was observed with DMMBI”, the “selectivity for iodide ion oxidation” value ([5]; alternate substrate mechanism) is reported as “block only reactions involving iodide ion oxidation” and the suicide inhibition [5] is reported as “not suicide inhibitors”.
For `CCCc1cc(=O)[nH]c(=S)[nH]1` [propylthiouracil], the suicide inhibition [9] is listed as “suicide inhibitors”.
